In ChEMBL document CHEMBL3351936, “Novel 25-hydroxyprotopanaxadiol derivatives incorporating chloroacetyl chloride and their anti-tumor evaluation” (Bioorg Med Chem Lett, 2014):
pIC50: −log10 of the molar value.

How the values were obtained:
[1] = Antiproliferative activity against human BGC823 cells assessed as cell-growth inhibition after 48 hrs by MTT assay; type: functional, cell-based; conditions: BGC-823, 48 h
HeLa = assay: Antiproliferative activity against human HeLa cells assessed as cell-growth inhibition after 48 hrs by MTT assay; type: functional, cell-based
MCF7 = assay: Antiproliferative activity against human MCF7 cells assessed as cell-growth inhibition after 48 hrs by MTT assay; type: functional, cell-based; conditions: MCF7, 48 h
[2] = Antiproliferative activity against human U87 cells assessed as cell-growth inhibition after 48 hrs by MTT assay; type: functional, cell-based, U-87MG ATCC; conditions: U-87 MG
[3] = Antiproliferative activity against human HCT116 cells assessed as cell-growth inhibition after 48 hrs by MTT assay; type: functional, cell-based; conditions: HCT-116, 48 h
LoVo = assay: Antiproliferative activity against human LoVo cells assessed as cell-growth inhibition after 48 hrs by MTT assay; type: functional, cell-based

SMILES	pIC50 [1]	pIC50 (HeLa)	pIC50 (MCF7)	pIC50 [2]	pIC50 [3]	pIC50 (LoVo)
CC(=O)O[C@H]1CC[C@]2(C)[C@H]3C[C@@H](OC(C)=O)[C@@H]4[C@@H]([C@](C)(O)CCCC(C)(C)O)CC[C@@]4(C)[C@]3(C)CC[C@H]2C1(C)C	4.37	4.54	4.63	4.39	4.77	4.45
O=c1[nH]cc(F)c(=O)[nH]1 [FLUOROURACIL]	4.45	4.74		4.42	4.44	4.90
CC(=O)O[C@@H]1C[C@@H]2[C@@]3(C)CC[C@H](O)C(C)(C)[C@@H]3CC[C@@]2(C)[C@]2(C)CC[C@H]([C@](C)(O)CCCC(C)(C)O)[C@@H]12	4.54	4.40	4.81	4.46	4.72	4.44
CC(C)(O)CCC[C@@](C)(O)[C@H]1CC[C@]2(C)[C@@H]1[C@H](O)C[C@@H]1[C@@]3(C)CC[C@H](OC(=O)CCl)C(C)(C)[C@@H]3CC[C@]12C	4.20	4.17	4.07	4.50	4.69	4.34
C/C(=C/CCC(C)(C)OC(=O)CCl)[C@H]1CC[C@]2(C)[C@@H]1[C@H](O)C[C@@H]1[C@@]3(C)CC[C@H](OC(=O)CCl)C(C)(C)[C@@H]3CC[C@]12C	4.62	4.63	5.10	4.67	5.92	5.89
CC(C)(O)CCC[C@@](C)(O)[C@H]1CC[C@]2(C)[C@@H]1[C@H](OC(=O)CCl)C[C@@H]1[C@@]3(C)CC[C@H](O)C(C)(C)[C@@H]3CC[C@]12C	4.51	4.43	4.58	5.14	4.49	4.51
CC(C)(CCC[C@@](C)(O)[C@H]1CC[C@]2(C)[C@@H]1[C@H](O)C[C@@H]1[C@@]3(C)CC[C@H](OC(=O)CCl)C(C)(C)[C@@H]3CC[C@]12C)OC(=O)CCl	5.16	4.57	5.43	4.40	4.42	4.24
CC(C)(O)CCC[C@@](C)(O)[C@H]1CC[C@]2(C)[C@@H]1[C@H](OC(=O)CCl)C[C@@H]1[C@@]3(C)CC[C@H](OC(=O)CCl)C(C)(C)[C@@H]3CC[C@]12C	4.21	4.16	4.42	4.06	4.34	4.39
CC(C)(O)CCC[C@@](C)(O)[C@H]1CC[C@]2(C)[C@@H]1[C@H](O)C[C@@H]1[C@@]3(C)CC[C@H](O)C(C)(C)[C@@H]3CC[C@]12C	4.35	4.31	4.30	4.56	4.48	4.33
C=C(CCCC(C)(C)O)[C@H]1CC[C@]2(C)[C@@H]1[C@H](O)C[C@@H]1[C@@]3(C)CC[C@H](OC(=O)CCl)C(C)(C)[C@@H]3CC[C@]12C	4.35	4.22	4.72	4.85	4.92	4.72
C=C(CCCC(C)(C)OC(=O)CCl)[C@H]1CC[C@]2(C)[C@@H]1[C@H](O)C[C@@H]1[C@@]3(C)CC[C@H](O)C(C)(C)[C@@H]3CC[C@]12C	4.57	4.40	4.97	5.00	4.37	4.40
CC(C)(CCC[C@@](C)(OC(=O)CCl)[C@H]1CC[C@]2(C)[C@@H]1[C@H](O)C[C@@H]1[C@@]3(C)CC[C@H](O)C(C)(C)[C@@H]3CC[C@]12C)OC(=O)CCl	4.49	4.28	4.92	4.72	4.25	4.21
C/C(=C/CCC(C)(C)O)[C@H]1CC[C@]2(C)[C@@H]1[C@H](OC(=O)CCl)C[C@@H]1[C@@]3(C)CC[C@H](O)C(C)(C)[C@@H]3CC[C@]12C	4.37	4.35	4.42	4.46	5.07	4.51
C=C(CCCC(C)(C)O)[C@H]1CC[C@]2(C)[C@@H]1[C@H](OC(=O)CCl)C[C@@H]1[C@@]3(C)CC[C@H](O)C(C)(C)[C@@H]3CC[C@]12C	4.34	4.25	5.01	4.61	4.65	4.63
CC(=O)O[C@H]1CC[C@]2(C)[C@H]3C[C@@H](O)[C@@H]4[C@@H]([C@](C)(O)CCCC(C)(C)O)CC[C@@]4(C)[C@]3(C)CC[C@H]2C1(C)C	4.46	4.52	4.71	4.49	4.69	4.35
C=C(CCCC(C)(C)O)[C@H]1CC[C@]2(C)[C@@H]1[C@H](OC(=O)CCl)C[C@@H]1[C@@]3(C)CC[C@H](OC(=O)CCl)C(C)(C)[C@@H]3CC[C@]12C	5.08	4.66	5.77	4.64	5.80	5.68
C/C(=C/CCC(C)(C)O)[C@H]1CC[C@]2(C)[C@@H]1[C@H](OC(=O)CCl)C[C@@H]1[C@@]3(C)CC[C@H](OC(=O)CCl)C(C)(C)[C@@H]3CC[C@]12C	5.15	4.42	5.80	4.78	5.59	5.77
